Experimental data reported in patent US20230256049A1, “MATERIALS AND METHODS FOR THE PREVENTION AND TREATMENT OF VIRAL RESPIRATORY DISEASES” (priority 2020, published 2023).
Read-outs that look alike come from different tables or passages of the source. Where a SMILES comes first, the peptide text is derived from it. [ ]: non-standard residue; d: D form.

Experiments:
[1] = system: SARS-CoV-2 (2019-nCoV/USA-WA1/2020 strain); settings: VERO E6 (FIG. 5C)
[2] = system: HIV-1 (primary R5 JR-CSF); test: HIV-1 in vitro model, HeLa TZM reporter cells (alanine scan); assay type: cell-based; settings: β-galactosidase at 48 h
[3] = system: SARS-CoV-2 (2019-nCoV/USA-WA1/2020 strain)
SARS-CoV-2 = settings: cited from earlier work; for treatment outcome in SARS-CoV-2 / COVID-19 patients: remdesivir: double-blind, randomized, placebo-controlled trial in hospitalized adults; for patient morbidity risk: treatment of SARS-CoV-2

CC[C@H](C)[C@H](NC(=O)[C@H](CC(=O)O)NC(=O)[C@H](CCCNC(=N)N)NC(=O)[C@H](CC(C)C)NC(=O)[C@H](Cc1c[nH]c2ccccc12)NC(=O)[C@@H](N)CO)C(=O)N[C@@H](Cc1c[nH]c2ccccc12)C(=O)N[C@@H](CC(=O)O)C(=O)N[C@@H](Cc1c[nH]c2ccccc12)C(=O)N[C@H](C(=O)N[C@@H](CS)C(=O)N[C@@H](CCC(=O)O)C(=O)N[C@H](C(=O)N[C@@H](CC(C)C)C(=O)N[C@@H](CO)C(=O)N[C@@H](CC(=O)O)C(=O)N[C@@H](Cc1ccccc1)C(=O)N[C@@H](CCCCN)C(=O)O)C(C)C)[C@@H](C)CC [Peptide 346-001, SWLRDIWDWICEVLSDFK] (H-SWLRDIWDWICEVLSDFK-OH; N-terminus and C-terminus assumed)
reduction on viral copy numbers ([1]; 50 μM dosing concentration): > 5 orders of magnitude
reduction on viral copy numbers ([1]; 125 μM dosing concentration): > 7 orders of magnitude
antiviral activity against HIV-1 (in vitro HIV-1 inhibition) [2]: effective against HIV-1

CC[C@@H](C)[C@@H](NC(=O)[C@@H](CC(=O)O)NC(=O)[C@@H](CCCNC(=N)N)NC(=O)[C@@H](CC(C)C)NC(=O)[C@@H](Cc1c[nH]c2ccccc12)NC(=O)[C@H](N)CO)C(=O)N[C@H](Cc1c[nH]c2ccccc12)C(=O)N[C@H](CC(=O)O)C(=O)N[C@H](Cc1c[nH]c2ccccc12)C(=O)N[C@@H](C(=O)N[C@H](CS)C(=O)N[C@H](CCC(=O)O)C(=O)N[C@@H](C(=O)N[C@H](CC(C)C)C(=O)N[C@H](CO)C(=O)N[C@H](CC(=O)O)C(=O)N[C@H](Cc1ccccc1)C(=O)N[C@H](CCCCN)C(=O)O)C(C)C)[C@H](C)CC [Peptide 346-002, swlrdiwdwicevlsdfk] (H-[dS][dW][dL][dR][dD][dI][dW][dD][dW][dI][dC][dE][dV][dL][dS][dD][dF][dK]-OH; N-terminus and C-terminus assumed)
EC50 ([3]; 2019-nCoV/USA-WA1/2020 strain, 48 h): 13 µM

CC[C@H](C)[C@H](NC(=O)[C@H](CC(C)C)NC(=O)[C@H](CC(=O)O)NC(=O)[C@@H](NC(=O)[C@H](Cc1c[nH]c2ccccc12)NC(=O)[C@H](CC(=O)O)NC(=O)[C@H](CCCNC(=N)N)NC(=O)[C@H](Cc1c[nH]c2ccccc12)NC(=O)[C@@H](NC(=O)[C@@H](N)CO)[C@@H](C)CC)C(C)C)C(=O)N[C@@H](CS)C(=O)N[C@@H](CCC(=O)O)C(=O)N[C@@H](Cc1ccccc1)C(=O)N[C@@H](CC(C)C)C(=O)N[C@@H](CO)C(=O)N[C@@H](CC(=O)O)C(=O)N[C@@H](Cc1c[nH]c2ccccc12)C(=O)N[C@@H](CCCCN)C(=O)O [Peptide 346-007, SIWRDWVDLICEFLSDWK] (H-SIWRDWVDLICEFLSDWK-OH; N-terminus and C-terminus assumed)
potency relative to the other peptides tested [3]: ca. double the potency of the other peptides tested

CCN(CC)CCCC(C)Nc1ccnc2cc(Cl)ccc12 (stereo not drawn) [chloroquine]
treatment outcome in SARS-CoV-2 / COVID-19 patients (SARS-CoV-2): failed
patient morbidity risk (SARS-CoV-2): increased patient morbidity risk

CCN(CCO)CCCC(C)Nc1ccnc2cc(Cl)ccc12 (stereo not drawn) [hydroxychloroquine]
treatment outcome in SARS-CoV-2 / COVID-19 patients (SARS-CoV-2): failed
patient morbidity risk (SARS-CoV-2): increased patient morbidity risk
